Test results: patent US20030166653A1, “Novel form of (r)-n-[5-methyl-8-(4-methylpiperazin-1-yl)-1,2,3,4-tetrahydro-2-naphthyl]-4-morpholinobenzamide” (priority 2003, published 2003)
Converted amounts (≈) assume the structure as drawn.

How the values were obtained:
Format in all cases: physicochemical
[1] = Stability in water solutions (pH not adjusted), HPLC assay
From the text: (§1) The stability of [5-Methyl-8-(4-methylpiperazin-1-yl)-1,2,3,4-tetrahydro-2-naphtyl]-4-morpholinobenzamide(=“Base” in tables below) and (R)-N-[5-methyl-8-(4-methylpiperazin-1-yl)-1,2,3,4-tetrahydro-2-naphtyl]-4-morpholinobenzamide monohydrobromide Form A (=“Form A” in tables below), as bulk drug substance and in solutions at different pH levels after exposure to daylight and at elevated temperatures, has been studied. Three solutions were made from each batch of drug substance. One solution in pure water, one in 0.1 mM HCl (pH 4.1) and one in 0.1 M HCl (pH 1.1). The content of [5-Methyl-8-(4-methylpiperazin-1-yl)-1,2,3,4-tetrahydro-2-naphtyl]-4-morpholinobenzamide (=Base) was determined by HPLC, all results are calculated as the base.

[2] = Stability of solution in 0.1 M HCl, pH 1.1, HPLC assay
From the text: as §1

[3] = Stability of solution in 0.1 mM HCl, pH 4.1, HPLC assay
From the text: as §1

[4] = Solubility in water by HPLC-analysis; details: as the free base by HPLC-analysis
[5] = Stability of bulk drug substance (HPLC purity) in daylight and at 90° C.; details: for HPLC Purity (100% - related substances): bulk
Experimental: The stability of [5-Methyl-8-(4-methylpiperazin-1-yl)-1,2,3,4-tetrahydro-2-naphtyl]-4-morpholinobenzamide(=“Base” in tables below) and (R)-N-[5-methyl-8-(4-methylpiperazin-1-yl)-1,2,3,4-tetrahydro-2-naphtyl]-4-morpholinobenzamide monohydrobromide Form A (=“Form A” in tables below), as bulk drug substance and in solutions at different pH levels after exposure to daylight and at elevated temperatures, has been studied. The bulk substances are very stable, both in daylight and at 90° C. There are no significant differences between the HPLC purity of [5-Methyl-8-(4-methylpiperazin-1-yl)-1,2,3,4-tetrahydro-2-naphtyl]-4-morpholinobenzamide (=Base) and (R)-N-[5-methyl-8-(4-methylpiperazin-1-yl)-1,2,3,4-tetrahydro-2-naphtyl]-4-morpholinobenzamide monohydrobromide Form A (=Form A) at the tested conditions.

[6] = Water sorption by dynamic vapour sorption (DVS); details: solid state characterization; monohydrobromide
[7] = daylight RT, 14 days, % of start
[8] = daylight RT, 23 days, % of start

Structure (SMILES): Cc1ccc(N2CCN(C)CC2)c2c1CCC(NC(=O)c1ccc(N3CCOCC3)cc1)C2 (centres unmarked) [Base, [5-Methyl-8-(4-methylpiperazin-1-yl)-1,2,3,4-tetrahydro-2-naphtyl]-4-morpholinobenzamide]
- Stability in water solutions, assay ([1]; 5° C., 8 days, % of start): 101%
- Stability in water solutions, assay ([1]; 5° C., 14 days, % of start): 101%
- Stability in water solutions, assay ([1]; 5° C., 23 days, % of start): 102%
- Stability in water solutions, assay ([1]; 5° C., Start): 0.00698 mg base/ml
- Stability in water solutions, assay ([1]; 5° C., Start, % of start): (100%)
- Stability in water solutions, assay ([1]; 60° C., 2 days, % of start): 105%
- Stability in water solutions, assay ([1]; 60° C., 8 days, % of start): 104%
- Stability in water solutions, assay ([1]; 60° C., 14 days, % of start): 106%
- Stability in water solutions, assay ([1]; 60° C., 23 days, % of start): 102%
- Stability in water solutions, assay ([1]; 60° C., Start): 0.00698 mg base/ml
- Stability in water solutions, assay ([1]; 60° C., Start, % of start): (100%)
- Stability in water solutions, assay ([1]; Dark RT, 8 days, % of start): 94%
- Stability in water solutions, assay ([1]; Dark RT, 14 days, % of start): 94%
- Stability in water solutions, assay ([1]; Dark RT, 23 days, % of start): 95%
- Stability in water solutions, assay ([1]; Dark RT, Start): 0.00698 mg base/ml
- Stability in water solutions, assay ([1]; Dark RT, Start, % of start): (100%)
- Stability in water solutions, assay ([1]; daylight RT, 8 days, % of start): 95%
- Stability in water solutions, assay [1, 7]: 94%
- Stability in water solutions, assay [1, 8]: 91%
- Stability in water solutions, assay ([1]; daylight RT, Start): 0.00698 mg base/ml
- Stability in water solutions, assay ([1]; daylight RT, Start, % of start): (100%)
- stability in pure water solution, comparison in words ([1]; room temperature, pH not adjusted): less stable than Form A
- Solution in 0.1 M HCl, pH 1.1, assay ([2]; 5° C., 8 days, % of start): 99%
- Solution in 0.1 M HCl, pH 1.1, assay ([2]; 5° C., 14 days, % of start): 100%
- Solution in 0.1 M HCl, pH 1.1, assay ([2]; 5° C., 23 days, % of start): 97%
- Solution in 0.1 M HCl, pH 1.1, assay ([2]; 5° C., Start): 0.479 mg base/ml
- Solution in 0.1 M HCl, pH 1.1, assay ([2]; 5° C., Start, % of start): (100%)
- Solution in 0.1 M HCl, pH 1.1, assay ([2]; 60° C., 2 days, % of start): 98%
- Solution in 0.1 M HCl, pH 1.1, assay ([2]; 60° C., 8 days, % of start): 96%
- Solution in 0.1 M HCl, pH 1.1, assay ([2]; 60° C., 14 days, % of start): 91%
- Solution in 0.1 M HCl, pH 1.1, assay ([2]; 60° C., 23 days, % of start): 83%
- Solution in 0.1 M HCl, pH 1.1, assay ([2]; 60° C., Start): 0.479 mg base/ml
- Solution in 0.1 M HCl, pH 1.1, assay ([2]; 60° C., Start, % of start): (100%)
- Solution in 0.1 M HCl, pH 1.1, assay ([2]; Dark RT, 8 days, % of start): 100%
- Solution in 0.1 M HCl, pH 1.1, assay ([2]; Dark RT, 14 days, % of start): 100%
- Solution in 0.1 M HCl, pH 1.1, assay ([2]; Dark RT, 23 days, % of start): 98%
- Solution in 0.1 M HCl, pH 1.1, assay ([2]; Dark RT, Start): 0.479 mg base/ml
- Solution in 0.1 M HCl, pH 1.1, assay ([2]; Dark RT, Start, % of start): (100%)
- Solution in 0.1 M HCl, pH 1.1, assay [2, 7]: 100%
- Solution in 0.1 M HCl, pH 1.1, assay [2, 8]: 98%
- Solution in 0.1 M HCl, pH 1.1, assay ([2]; daylight RT, Start): 0.479 mg base/ml
- Solution in 0.1 M HCl, pH 1.1, assay ([2]; daylight RT, Start, % of start): (100%)
- stability in solution, comparison in words ([2]; pH 1.1, 60° C.): less stable than Form A
- stability in solution in words ([2]; pH 1.1, except at 60° C.): good
- Solution in 0.1 mM HCl, pH 4.1, assay ([3]; 5° C., 8 days, % of start): 100%
- Solution in 0.1 mM HCl, pH 4.1, assay ([3]; 5° C., 14 days, % of start): 99%
- Solution in 0.1 mM HCl, pH 4.1, assay ([3]; 5° C., 23 days, % of start): 99%
- Solution in 0.1 mM HCl, pH 4.1, assay ([3]; 5° C., Start): 0.0443 mg base/ml
- Solution in 0.1 mM HCl, pH 4.1, assay ([3]; 5° C., Start, % of start): (100%)
- Solution in 0.1 mM HCl, pH 4.1, assay ([3]; 60° C., 2 days, % of start): 96%
- Solution in 0.1 mM HCl, pH 4.1, assay ([3]; 60° C., 8 days, % of start): 93%
- Solution in 0.1 mM HCl, pH 4.1, assay ([3]; 60° C., 14 days, % of start): 67%
- Solution in 0.1 mM HCl, pH 4.1, assay ([3]; 60° C., 23 days, % of start): 57%
- Solution in 0.1 mM HCl, pH 4.1, assay ([3]; 60° C., Start): 0.0443 mg base/ml
- Solution in 0.1 mM HCl, pH 4.1, assay ([3]; 60° C., Start, % of start): (100%)
- Solution in 0.1 mM HCl, pH 4.1, assay ([3]; Dark RT, 8 days, % of start): 99%
- Solution in 0.1 mM HCl, pH 4.1, assay ([3]; Dark RT, 14 days, % of start): 98%
- Solution in 0.1 mM HCl, pH 4.1, assay ([3]; Dark RT, 23 days, % of start): 97%
- Solution in 0.1 mM HCl, pH 4.1, assay ([3]; Dark RT, Start): 0.0443 mg base/ml
- Solution in 0.1 mM HCl, pH 4.1, assay ([3]; Dark RT, Start, % of start): (100%)
- Solution in 0.1 mM HCl, pH 4.1, assay [3, 7]: 98%
- Solution in 0.1 mM HCl, pH 4.1, assay [3, 8]: 98%
- Solution in 0.1 mM HCl, pH 4.1, assay ([3]; daylight RT, Start): 0.0443 mg base/ml
- Solution in 0.1 mM HCl, pH 4.1, assay ([3]; daylight RT, Start, % of start): (100%)
- stability in solution, comparison in words ([3]; pH 4.1, 60° C. (more pronounced than at pH 1.1)): less stable than Form A
- stability in solution in words ([3]; pH 4.1, except at 60° C.): good
- solubility in water [4]: 34 µg/mL (≈ 75.8 µM)
- HPLC Purity (100% - related substances) ([5]; 90° C., 2 days): 99.9%
- HPLC Purity (100% - related substances) ([5]; 90° C., 8 days): 99.9%
- HPLC Purity (100% - related substances) ([5]; 90° C., 14 days): 99.9%
- HPLC Purity (100% - related substances) ([5]; 90° C., 21 days): 99.9%
- HPLC Purity (100% - related substances) ([5]; 90° C., 30 days): 99.9%
- HPLC Purity (100% - related substances) ([5]; 90° C., Start): 100%
- HPLC Purity (100% - related substances) ([5]; daylight, RT, 8 days): 99.9%
- HPLC Purity (100% - related substances) ([5]; daylight, RT, 14 days): 99.9%
- HPLC Purity (100% - related substances) ([5]; daylight, RT, 21 days): 99.9%
- HPLC Purity (100% - related substances) ([5]; daylight, RT, 30 days): 99.9%
- HPLC Purity (100% - related substances) ([5]; daylight, RT, Start): 100%
- stability of bulk substance in words ([5]; in daylight and at 90° C.): very stable

Structure (SMILES): Br.Cc1ccc(N2CCN(C)CC2)c2c1CC[C@@H](NC(=O)c1ccc(N3CCOCC3)cc1)C2 [Form B, (R)-N-[5-methyl-8-(4-methylpiperazin-1-yl)-1,2,3,4-tetrahydro-2-naphtyl]-4-morpholinobenzamide monohydrobromide]
- hygroscopicity / water uptake in words [6]: readily resorbs water again
